From publication PMC5456363 (PLoS ONE, 2017)
Where “and” joins values, the source holds several entries; their conditions need not be identical. Equal entries are not always repeated. One block for each compound: values may come before it. Non-standard residues stand in square brackets, D forms with d. Residues, ends and D or L forms follow the SMILES beside them. *: point of attachment. Orn(α-tetramethylguanidino) = CN(C)C(=N[C@@H](CCCN)C(=O)*)N(C)C

Legend:
[1] = Peptide stability in activated serum (AS); format: in vitro ADME, CD-1 mice
Procedure: (§1) All stability tests were performed at least in triplicates.

[2] = Peptide stability in direct serum (DS); format: in vitro ADME, CD-1 mice
Procedure: as §1

[3] = Peptide stability in commercial serum (CS); format: in vitro ADME, mouse
Procedure: as §1

[4] = Peptide stability in fresh blood taken by cardiac puncture into a syringe containing the peptide (blood, B); format: in vitro ADME, CD-1 mice
Procedure: as §1

[5] = Peptide stability in EDTA plasma (EP); format: in vitro ADME, CD-1 mouse
Procedure: as §1

[6] = Peptide stability in heparin plasma (HP); format: in vitro ADME, CD-1 mouse
Procedure: as §1

[7] = set-up: method as in PMID 27067364; conditions: 25% aqueous commercial serum; cited from earlier work
[8] = Stability and metabolites across fresh blood, serum and plasma (all six matrices); conditions: fresh blood, serum, and plasma
Procedure: Aqueous peptide solutions (3 g/L) were filled in a sterile syringe (1 mL, Dispomed Witt oHG, Gelnhausen, Deutschland) through the front end, the stainless-steel needle was attached, and blood (200 to 300 μL) was collected via cardiac puncture to obtain a peptide concentration of approximately 31,5 μmol/L. The syringe was carefully disconnected from the needle and sealed while keeping the needle in the heart. A second empty syringe was attached to the needle and 0.5 to 0.8 mL blood were collected. In parallel, the sealed syringe was gently shaken for one minute to mix the peptide solution with blood and further incubated on a Stuart Rotator SB3 (Barloworld, Scientific LTD, Stone, Staffordshire, U.K.) placed in an incubator at 37°C. […] The plasma sample designated as “blood” (B) was precipitated with trichloroacetic acid (TCA), as described below. Blood collected in the second syringe was transferred to a polypropylene tube (Eppendorf AG, Hamburg, Germany) and a BD Microtainer® serum separator tube (SST; Becton, Dickinson and Company). Polypropylene tubes were centrifuged immediately (12,000 x g, 2 to 4 min) to obtain “direct serum” (DS) as supernatant, whereas the serum separator tubes were incubated (room temperature, 1 h), centrifuged (12,000 x g, 2 min), and collected as “activated serum” (AS). Pooled mouse serum was purchased from PAA Laboratories GmbH (Pasching, Austria) and pooled CD-1 mouse plasma containing K2EDTA or lithium heparin were obtained from Innovative Research (Novi, MI, USA).
Peptides were mixed with serum or plasma to a final concentration of 31.5 μmol/L and incubated (37°C, 750 rpm; Thermomixer, Eppendorf AG, Hamburg, Germany). Aliquots (20 or 40 μL) taken after 0 and 60 min (0, 10 and 30 min for Api88) were mixed with TCA to obtain a final concentration of 3% (w/v) and incubated on ice (10 min). After centrifugation (12,000 x g, 5 min), the supernatant was neutralized with sodium hydroxide (1 mol/L) and stored at −20°C. Samples were analyzed by RP-HPLC on a Jupiter C18-column (internal diameter: 2 mm, length: 150 mm, particle size: 5 μm, pore size: 30 nm) using a linear aqueous acetonitrile gradient containing TFA (0.1%, v/v) as ion pair reagent. Peptides were detected by recording the absorbance at 214 nm and quantified by their peak areas relative to the initial peak areas (0 min). All stability tests were performed at least in triplicates.
Metabolites were identified on an Agilent 1100 LC system (Agilent Technologies, Santa Clara, CA, USA) coupled on-line via a UV-detector (absorbance recorded at 214 nm) to the electrospray ionization source on an ion trap mass spectrometer (ESI-IT-MS, Esquire HCT, Bruker Daltonics GmbH, Bremen, Germany). Samples were separated on an Aqua C18-column (inner diameter: 2 mm, length: 150 mm, particle size: 3 μm, pore size: 12.5 nm, Phenomenex; column temperature: 60°C) at a flow rate of 0.2 mL/min using a linear gradient of aqueous acetonitrile in the presence of formic acid (FA; 0.1%, v/v) as ion pair reagent. […] The ESI-IT-MS was operated in positive ion mode. Ionization was carried out at 365°C (source temperature) using nitrogen as curtain gas (40 psi) and dry gas (9 L/min). Mass spectra were acquired for an m/z range from 400 to 1300 at a scan rate of 8100 m/z-units per second in standard enhanced mode.

human α-thrombin [9] = target: T1, human α-thrombin (Homo sapiens, UniProt P00734); experiment: α-Thrombin stability assay; format: in vitro ADME
T1 construct: with human α-Thrombin for 0, 1, and 24 hours
Procedure: Supplementary file pone.0178943.s003.tif: S3 Fig Stability of Api88, Api137, and LVPR-Onc112 against human α-thrombin. Chromatograms recorded after incubation of Api88 (a), Api137 (b), or LVPR-Onc112 (c) with human α-Thrombin for 0, 1, and 24 hours (UV absorbance). […] (TIF) Click here for additional data file.
S1 Text. Method α-Thrombin stability assay.

[10] = in vitro, mouse serum; cited from earlier work
[11] = 25% aqueous commercial serum; conditions: cited from earlier work
[12] = “activated serum” (AS): serum separator tubes incubated (room temperature, 1 h), centrifuged; conditions: CD-1 mice, 37°C, up to 60 min
[13] = “direct serum” (DS): blood in polypropylene tubes centrifuged immediately; conditions: CD-1 mice, 37°C, up to 60 min
[14] = pooled CD-1 mouse plasma containing lithium heparin (heparin plasma, HP); conditions: 37°C, up to 60 min
[15] = pooled CD-1 mouse plasma containing K2EDTA (EDTA plasma, EP); conditions: 37°C, up to 60 min
[16] = Pooled mouse serum (PAA Laboratories), commercial serum (CS); conditions: 37°C, up to 60 min
[17] = blood collected via cardiac puncture into a syringe containing the peptide solution (“blood”, B); conditions: CD-1 mice, 37°C, up to 60 min
human α-thrombin [18] = experiment: human α-thrombin; conditions: up to 24 hours

Onc112 released relative to initial prodrug ([1]; 1 h): < 3%
Onc112 released relative to initial prodrug ([2]; 1 h): < 3%
Onc112 released relative to initial prodrug ([3]; commercial serum, 1 h): 13 ± 2%
prodrug expected to be present in full serum ([3]; extrapolated from 25% serum data assuming three-fold faster degradation in full serum): 5%
Onc112 released relative to initial prodrug ([4]; blood, 1 h): < 3%
Onc112 released relative to initial prodrug ([5]; 1 h): 40 ± 4%
Onc112 released relative to initial prodrug ([6]; 1 h): 35 ± 4%
Overall stability [8]: Low
Sequential stability [8]: Blood = Plasma = Serum
Compound: CC[C@H](C)[C@H](NC(=O)[C@@H](CCCNC(=N)N)NC(=O)[C@H](CCCNC(=N)N)NC(=O)[C@@H]1CCCN1C(=O)[C@@H]1CCCN1C(=O)[C@H](CCCNC(=N)N)NC(=O)[C@@H]1CCCN1C(=O)[C@H](CCCNC(=N)N)NC(=O)[C@@H]1CCCN1C(=O)[C@H](CC(C)C)NC(=O)[C@H](Cc1ccc(O)cc1)NC(=O)[C@@H]1CCCN1C(=O)[C@@H]1CCCN1C(=O)[C@H](CCCCN)NC(=O)[C@H](CC(=O)O)NC(=O)[C@@H](NC(=O)[C@H](CCCNC(=N)N)NC(=O)[C@H](Cc1ccc(O)cc1)NC(=O)[C@H](C)NC(=O)[C@H](C)N)C(C)C)C(=O)N[C@@H](Cc1ccc(O)cc1)C(=O)N[C@@H](CC(N)=O)C(=O)N[C@H](CCCNC(=N)N)C(N)=O [AAYR-Onc112, AAYRVDKPPYLPRPRPPRrIYNr-NH2] (H-AAYRVDKPPYLPRPRPPR[dR]IYN[dR]-NH2)
Onc112 released from linker peptide [7]: 85%

intact peptide remaining relative to time zero ([1]; 37°C, 30 min): fully degraded
remaining at 10 min, 31.5 μmol/L ([1]; CD-1, mouse, 37°C, 10 min, read-out: intact peptide remaining relative to time zero): 22 ± 5%
proteolytic cleavage by human α-thrombin (human α-thrombin [9]; after one hour): completely degraded
intact peptide remaining relative to time zero ([2]; 37°C, 30 min): fully degraded
remaining at 10 min, 31.5 μmol/L ([2]; CD-1, mouse, direct serum (supernatant of blood centrifuged immediately), 37°C, 10 min, read-out: intact peptide remaining relative to time zero): 11 ± 6%
intact peptide remaining relative to time zero ([3]; commercial serum, 37°C, 30 min): fully degraded
remaining at 10 min, 31.5 μmol/L ([3]; mouse, commercial pooled serum, commercial serum, 37°C, 10 min, read-out: intact peptide remaining relative to time zero): 10 ± 2%
half-life at 31.5 μmol/L ([4]; CD-1, mouse, fresh whole blood taken by cardiac puncture, indicated by the recovery after 10 min, read-out: half-life time in fresh mouse blood (converted)): ~1 h
remaining at 10 min ([4]; CD-1, mouse, fresh whole blood, blood, 37°C, 10 min, read-out: intact peptide remaining relative to time zero): 88 ± 14%
remaining at 0.5 h ([4]; CD-1, mouse, fresh whole blood, blood, 37°C, 30 min, read-out: intact peptide remaining relative to time zero): 30 ± 14%
half-life time in fresh mouse blood relative to that reported for serum ([4]; blood versus reported serum half-life): 30 fold
intact peptide remaining relative to time zero ([4]; blood, 37°C, 10 min): 88 ± 15%
remaining at 10 min, 31.5 μmol/L ([5]; CD-1, mouse, pooled plasma containing K2EDTA, 37°C, 10 min, read-out: intact peptide remaining relative to time zero): 48 ± 4%
remaining at 0.5 h, 31.5 μmol/L ([5]; CD-1, mouse, pooled plasma containing K2EDTA, 37°C, 30 min, read-out: intact peptide remaining relative to time zero): 5 ± 3%
remaining at 10 min, 31.5 μmol/L ([6]; CD-1, mouse, pooled plasma containing lithium heparin, 37°C, 10 min, read-out: intact peptide remaining relative to time zero): 77 ± 5%
remaining at 0.5 h, 31.5 μmol/L ([6]; CD-1, mouse, pooled plasma containing lithium heparin, 37°C, 30 min, read-out: intact peptide remaining relative to time zero): 36 ± 1%
Overall stability [8]: Low
Sequential stability [8]: Blood > Plasma > Serum
Compound: CC[C@H](C)[C@H](NC(=O)[C@H](Cc1ccc(O)cc1)NC(=O)[C@@H](NC(=O)[C@@H]1CCCN1C(=O)[C@H](CCCNC(=N)N)NC(=O)[C@H](CC(N)=O)NC(=O)[C@H](CC(N)=O)NC(=O)[C@H](CCCN)N=C(N(C)C)N(C)C)C(C)C)C(=O)N1CCC[C@H]1C(=O)N[C@@H](CCCNC(=N)N)C(=O)N1CCC[C@H]1C(=O)N[C@@H](CCCNC(=N)N)C(=O)N1CCC[C@H]1C(=O)N1CCC[C@H]1C(=O)N[C@@H](Cc1c[nH]cn1)C(=O)N1CCC[C@H]1C(=O)N[C@@H](CCCNC(=N)N)C(=O)N[C@@H](CC(C)C)C(N)=O [Api88, gu-ONNRPVYIPRPRPPHPRL-NH2] ({Orn(α-tetramethylguanidino)}-NNRPVYIPRPRPPHPRL-NH2)

intact peptide remaining relative to time zero ([1]; 37°C, 1 h, 31.5 μmol/L): ≥ 94%
proteolytic cleavage by human α-thrombin (human α-thrombin [9]; after 24 h): remained mostly intact
intact peptide remaining relative to time zero ([2]; 37°C, 1 h, 31.5 μmol/L): ≥ 94%
remaining at 1 h, 31.5 μmol/L ([3]; commercial pooled serum, commercial mouse serum, 37°C, 1 h, 31.5 μmol/L, read-out: intact peptide remaining relative to time zero): 87 ± 9%
intact peptide remaining relative to time zero ([5]; 37°C, 1 h, 31.5 μmol/L): ≥ 94%
remaining at 1 h, 31.5 μmol/L ([6]; CD-1, mouse, pooled plasma containing lithium heparin, 37°C, 1 h, 31.5 μmol/L, read-out: intact peptide remaining relative to time zero): 83 ± 2%
Overall stability [8]: High
Sequential stability [8]: Blood = Plasma = Serum
Compound: CC[C@H](C)[C@H](NC(=O)[C@H](Cc1ccc(O)cc1)NC(=O)[C@@H](NC(=O)[C@@H]1CCCN1C(=O)[C@H](CCCNC(=N)N)NC(=O)[C@H](CC(N)=O)NC(=O)[C@H](CC(N)=O)NC(=O)[C@H](CCCN)N=C(N(C)C)N(C)C)C(C)C)C(=O)N1CCC[C@H]1C(=O)N[C@@H](CCCNC(=N)N)C(=O)N1CCC[C@H]1C(=O)N[C@@H](CCCNC(=N)N)C(=O)N1CCC[C@H]1C(=O)N1CCC[C@H]1C(=O)N[C@@H](Cc1c[nH]cn1)C(=O)N1CCC[C@H]1C(=O)N[C@@H](CCCNC(=N)N)C(=O)N[C@@H](CC(C)C)C(=O)O [Api137, gu-ONNRPVYIPRPRPPHPRL-OH] ({Orn(α-tetramethylguanidino)}-NNRPVYIPRPRPPHPRL-OH)
half-life time in mouse serum [10]: 6 h

Compound: AAYRVDKPPYLPRPRPPRrIYNr-NH2 (H-AAYRVDKPPYLPRPRPPR[dR]IYN[dR]-NH2; SMILES CC[C@H](C)[C@H](NC(=O)[C@@H](CCCNC(=N)N)NC(=O)[C@H](CCCNC(=N)N)NC(=O)[C@@H]1CCCN1C(=O)[C@@H]1CCCN1C(=O)[C@H](CCCNC(=N)N)NC(=O)[C@@H]1CCCN1C(=O)[C@H](CCCNC(=N)N)NC(=O)[C@@H]1CCCN1C(=O)[C@H](CC(C)C)NC(=O)[C@H](Cc1ccc(O)cc1)NC(=O)[C@@H]1CCCN1C(=O)[C@@H]1CCCN1C(=O)[C@H](CCCCN)NC(=O)[C@H](CC(=O)O)NC(=O)[C@@H](NC(=O)[C@H](CCCNC(=N)N)NC(=O)[C@H](Cc1ccc(O)cc1)NC(=O)[C@H](C)NC(=O)[C@H](C)N)C(C)C)C(=O)N[C@@H](Cc1ccc(O)cc1)C(=O)N[C@@H](CC(N)=O)C(=O)N[C@H](CCCNC(=N)N)C(N)=O)
fragment found [11]: Onc112
fragment found [12]: 5–23 [Onc112]; VDKPPYLPRPRPPRrIYNr-NH2
fragment found [13]: 5–23 [Onc112]; VDKPPYLPRPRPPRrIYNr-NH2
fragment found [14]: 5–23 [Onc112]; VDKPPYLPRPRPPRrIYNr-NH2
fragment found [15]: 5–23 [Onc112]; VDKPPYLPRPRPPRrIYNr-NH2
fragment found [16]: 5–23 [Onc112]; VDKPPYLPRPRPPRrIYNr-NH2
fragment found [17]: 5–23 [Onc112]; VDKPPYLPRPRPPRrIYNr-NH2

Compound: LVPRVDKPPYLPRPRPPRrIYNr-NH2 (H-LVPRVDKPPYLPRPRPPR[dR]IYN[dR]-NH2; SMILES CC[C@H](C)[C@H](NC(=O)[C@@H](CCCNC(=N)N)NC(=O)[C@H](CCCNC(=N)N)NC(=O)[C@@H]1CCCN1C(=O)[C@@H]1CCCN1C(=O)[C@H](CCCNC(=N)N)NC(=O)[C@@H]1CCCN1C(=O)[C@H](CCCNC(=N)N)NC(=O)[C@@H]1CCCN1C(=O)[C@H](CC(C)C)NC(=O)[C@H](Cc1ccc(O)cc1)NC(=O)[C@@H]1CCCN1C(=O)[C@@H]1CCCN1C(=O)[C@H](CCCCN)NC(=O)[C@H](CC(=O)O)NC(=O)[C@@H](NC(=O)[C@H](CCCNC(=N)N)NC(=O)[C@@H]1CCCN1C(=O)[C@@H](NC(=O)[C@@H](N)CC(C)C)C(C)C)C(C)C)C(=O)N[C@@H](Cc1ccc(O)cc1)C(=O)N[C@@H](CC(N)=O)C(=O)N[C@H](CCCNC(=N)N)C(N)=O)
fragment found [11]: Onc112
fragment found [12]: LVPR-Onc112(4–23); RVDKPPYLPRPRPPRrIYNr-NH2, minor and 5–23 [Onc112]; VDKPPYLPRPRPPRrIYNr-NH2
fragment found [13]: LVPR-Onc112(4–23); RVDKPPYLPRPRPPRrIYNr-NH2, minor and 5–23 [Onc112]; VDKPPYLPRPRPPRrIYNr-NH2
fragment found [14]: LVPR-Onc112(4–23); RVDKPPYLPRPRPPRrIYNr-NH2, minor and 5–23 [Onc112]; VDKPPYLPRPRPPRrIYNr-NH2
fragment found [15]: LVPR-Onc112(4–23); RVDKPPYLPRPRPPRrIYNr-NH2, minor and 5–23 [Onc112]; VDKPPYLPRPRPPRrIYNr-NH2
fragment found [16]: LVPR-Onc112(4–23); RVDKPPYLPRPRPPRrIYNr-NH2, minor and 5–23 [Onc112]; VDKPPYLPRPRPPRrIYNr-NH2
cleaved bond (human α-thrombin [18]): C-terminal to Arg4 in LVPR-Onc112
fragment found [17]: LVPR-Onc112(4–23); RVDKPPYLPRPRPPRrIYNr-NH2 and 5–23 [Onc112]; VDKPPYLPRPRPPRrIYNr-NH2
